The text below walks through data of patent publication EP0346744A1, “Condensed diazepinones, process for their preparation and medicaments containing them” (Dr. Karl Thomae GmbH, priority 1988, dated 1989).

One experiment deals with M2. Put plainly: Inhibition of vagal-stimulation bradycardia in the rat (M1/M2 selectivity, heart). The experiment is classed as in vivo, Ratte. As to the method: (§1) 1. M,- M2-Selektivität an der Ratte
(§2) Die angewandte Methode wurde von Hammer und Giachetti (Life Sciences 31, 2991-2998 (1982)) beschrieben. 5 Minuten nach intravenöser Injektion steigender Dosen der Substanz wurden entweder der rechte Vagus elektrisch stimuliert (Frequenz: 25 Hz; Pulsbreite: 2ms; Reizdauer: 30s; Voltzahl: supramaximal) oder 0,3 mg kg McN-A-343 in männliche THOM-Ratten intravenös injiziert. Die durch Vagusstimulation hervorgeru fene Bradykardie und der durch McN-A-343 verursachte Blutdruckanstieg wurden bestimmt. Die Dosis der Substanzen, die entweder die vagale Bradykardie (M2) oder den Blutdruckanstieg (Mi) um 50% verminderte, wurde graphisch ermittelt. Ergebnisse siehe Tabelle II.

The test system of another experiment is M1. Briefly: Inhibition of McN-A-343-induced blood pressure rise in the rat (M1/M2 selectivity). The experiment is classed as in vivo, Ratte. The procedure: as §1, §2
In a further experiment the test system is Herzfrequenz. Briefly: Inhibition of acetylcholine effect on heart rate of the guinea pig. Format: in vivo, Meerschweinchen. To be noted: for ED50: Cavia porcellus, 5 min, anaesthetised guinea pig, 10 µg/kg acetylcholine 5 min after test substance, heart rate by ECG. The procedure: (§3) 3. Hemmung der Acetylcholinwirkung auf Blase, Bronchien und Herzfrequenz des Meerschweinchens
(§4) Am narkotisierten Meerschweinchen wurden 5 Minuten nach Gabe der Prüfsubstanz 10 µg/kg Acetylcholin intravenös als auch gleichzeitig intraarteriell injiziert. Dabei wurde die Herzfrequenz durch extrakorporale Ableitung des EKG, der Ausatemwiderstand nach Konzett-Rößler und die Kontraktion der freigelegten Harnblase direkt registriert. Für die Hemmung der Acetylcholinwirkung an den untersuchten Organen wurden Dosis-Wirkungskurven aufgenommen und daraus -log EDso-Werte bestimmt. Ergebnisse siehe Tabelle III.

Another experiment has as its system Bronchien. Briefly: Inhibition of acetylcholine effect on bronchi of the guinea pig. The experiment is classed as in vivo, Meerschweinchen. The conditions noted are these: for ED50: Cavia porcellus, 5 min, anaesthetised guinea pig, 10 µg/kg acetylcholine 5 min after test substance, expiratory resistance (Konzett-Rößler), read-out: -log ED50 Bronchien (converted). The procedure: as §3, §4

The next experiment deals with Blase. Put plainly: Inhibition of acetylcholine effect on bladder of the guinea pig. Format: in vivo, Meerschweinchen. The conditions noted are these: for ED50: Cavia porcellus, 5 min, anaesthetised guinea pig, 10 µg/kg acetylcholine 5 min after test substance, contraction of exposed urinary bladder, read-out: -log ED50 Blase (converted). As to the method: as §3, §4

A further experiment relates to Speichelsekretion. Put plainly: Inhibition of pilocarpine-induced salivation in the rat. Format: in vivo, Ratte. To be noted: iv; urethane-anaesthetised rat, i.v.; salivation induced by 2 mg/kg pilocarpine s.c.; dose reducing saliva volume by 50%; read-out: -log ED50 Salivation (converted). The procedure: 2. Speichselsekretionshemmende Wirkung an der Ratte
Nach Lavy und Mulder (Arch. int. Pharmacodyn. 178. 437-445, (1969)) erhielten mit 1,2 glkg Urethan narkotisierte männliche THOM-Ratten steigende Dosen der Substanz i.v.. Die Speichelsekretion wurde durch s.c. Gabe von 2 mg kg Pilocarpin ausgelöst. Der Speichel wurde mit Fließpapier aufgesaugt, die von ihm eingenommene Fläche alle 5 Minuten planimetrisch bestimmt. Die Dosis der Substanz, die das Speichelvolumen um 50% verminderte, wurde graphisch ermittelt. Ergebnisse siehe Tabelle II.

Where [1] appears, read: rat, i.v., 5 min before electrical stimulation of the right vagus, dose reducing vagal bradycardia (M2) by 50%.
[2] abbreviates: rat, i.v., 5 min before 0,3 mg/kg McN-A-343 i.v., dose reducing blood pressure rise (M1) by 50%.

Structures can show the parent of a compound that is named as a salt.

As for `CN1C2CCC1CC(OC(=O)C(CO)c1ccccc1)C2` (racemic) [G, Atropin, reference compound], the “-log ED50 Herz” value is 7,94 Mkg^-1 in the experiment with M2 (in vivo, iv) and 7,70 Molkg^-1 in the experiment with Herzfrequenz (in vivo). For the same compound, in the experiment on M1 (in vivo), the “-log ED50 Blutdruck” value is given as 7,34 Mkg^-1. For the same compound, in the experiment with Bronchien (in vivo), the “-log ED50 Bronchien” value is reported as 7,96 Molkg^-1. The “-log ED50 Blase” value in the experiment on Blase (in vivo) was 7,03 Molkg^-1.
For orientation: ED50 means the midpoint of the dose-response relation. As to `CN(CCC1CCCCN1C)CC(=O)N1c2ccccc2C(=O)Nc2cccnc21` (centres unmarked) [A], in the experiment on M2 (setting [1]), the “-log ED50 Herz” value is reported as 7,48 Mkg^-1. For the same compound, in the experiment on M1 (setting [2]), the “-log ED50 Blutdruck” value is listed as 6,34 Mkg^-1. The ED50 in the experiment with Speichelsekretion was 1.23 µmol/kg; in the experiment on Herzfrequenz it was 0.0178 µmol/kg; with Bronchien it was 0.0457 µmol/kg; in the experiment on Blase it was 0.12 µmol/kg.
For `CN(CCC1CCCCCN1C)CC(=O)N1c2ccccc2C(=O)Nc2cccnc21` (centres unmarked) [B, 5.11-Dihydro-11-[[[2-(1-methyl-hexahydro-1 H-2-azepinyi)ethyl]methylamino]acetyl]-6H-pyrido-[2,3-b][1,4]benzodiazepin6-on], the “-log ED50 Herz” value in the experiment with M2 (setting [1]) is 7,41 Mkg^-1. Moreover, in the experiment on M1 (setting [2]), the “-log ED50 Blutdruck” value is given as 6,46 Mkg^-1. The ED50 with Speichelsekretion was 3.39 µmol/kg; in the experiment with Herzfrequenz it was 0.0251 µmol/kg; in the experiment with Bronchien, 0.0646 µmol/kg; in the experiment with Blase it was 0.269 µmol/kg.
For `CN(CCC1CCCCCN1C)CC(=O)N1c2cc(Cl)ccc2C(=O)Nc2cccnc21` (centres unmarked) [C, 9-Chior-5,11-dihydro-11-[[[2-(1-methyl-hexahydro-1H-2-azepinyl)ethyl]methylamino]acetyl]-6H-pyrido[2,3-b][1,4]benzodiazepin-6-on-hydrochlorid], in the experiment with M2 (setting [1]), the “-log ED50 Herz” value is 7,5 Mkg^-1. The ED50 in the experiment with Speichelsekretion is 3.02 µmol/kg; in the experiment with Herzfrequenz, 0.055 µmol/kg; in the experiment with Bronchien it was 0.191 µmol/kg; in the experiment with Blase, 0.234 µmol/kg.
Take `Cc1ccc2c(c1)C(=O)Nc1cccnc1N2C(=O)CN(C)CCC1CCCCCN1C` (centres unmarked) [D, 5,11-Dihydro-8-methyl-11-[[[2-(1-methyl-hexahydro-1H-2-azepinyl)ethyl]methylamino]acetyl]-6H-pyrido[2,3-b][1,4]benzodiazepin-6-on]: the “-log ED50 Herz” value with M2 (setting [1]) is given as 7,67 Mkg^-1. For the same compound, the ED50 in the experiment with Speichelsekretion is 0.617 µmol/kg; in the experiment on Herzfrequenz it was 0.0525 µmol/kg; in the experiment with Bronchien, 0.135 µmol/kg; in the experiment on Blase it was 0.347 µmol/kg.
Consider `CCN(CC)CC1CCCCN1CC(=O)N1c2ccccc2C(=O)Nc2cccnc21` (centres unmarked) [E, 11-[[2-[(Diethylamino)methyl]-1-piperidinyl]acetyl]-5,11-dihydro-6H-pyrido[2,3-b][1,4]-benzodiazepin-6-on, reference compound], for which the “-log ED50 Herz” value with M2 (setting [1]) was 6,42 Mkg^-1. Further, in the experiment on Speichelsekretion, the ED50 was 10 µmol/kg.
